Source: US20100137449A1, “SUBSTITUTED 1,3-CYCLOPENTADIONE MULTI-TARGET PROTEIN KINASE MODULATORS OF CANCER, ANGIOGENESIS AND THE INFLAMMATORY PATHWAYS ASSOCIATED THEREWITH” (METAPROTEOMICS, LLC, priority 2007, published 2010)

Experiments:
Assay in all cases: KinaseProfiler Assay
EphB4(h) = target: T1, EphB4(h) (Homo sapiens, UniProt P54760)
T1 sequence (P54760 16-987): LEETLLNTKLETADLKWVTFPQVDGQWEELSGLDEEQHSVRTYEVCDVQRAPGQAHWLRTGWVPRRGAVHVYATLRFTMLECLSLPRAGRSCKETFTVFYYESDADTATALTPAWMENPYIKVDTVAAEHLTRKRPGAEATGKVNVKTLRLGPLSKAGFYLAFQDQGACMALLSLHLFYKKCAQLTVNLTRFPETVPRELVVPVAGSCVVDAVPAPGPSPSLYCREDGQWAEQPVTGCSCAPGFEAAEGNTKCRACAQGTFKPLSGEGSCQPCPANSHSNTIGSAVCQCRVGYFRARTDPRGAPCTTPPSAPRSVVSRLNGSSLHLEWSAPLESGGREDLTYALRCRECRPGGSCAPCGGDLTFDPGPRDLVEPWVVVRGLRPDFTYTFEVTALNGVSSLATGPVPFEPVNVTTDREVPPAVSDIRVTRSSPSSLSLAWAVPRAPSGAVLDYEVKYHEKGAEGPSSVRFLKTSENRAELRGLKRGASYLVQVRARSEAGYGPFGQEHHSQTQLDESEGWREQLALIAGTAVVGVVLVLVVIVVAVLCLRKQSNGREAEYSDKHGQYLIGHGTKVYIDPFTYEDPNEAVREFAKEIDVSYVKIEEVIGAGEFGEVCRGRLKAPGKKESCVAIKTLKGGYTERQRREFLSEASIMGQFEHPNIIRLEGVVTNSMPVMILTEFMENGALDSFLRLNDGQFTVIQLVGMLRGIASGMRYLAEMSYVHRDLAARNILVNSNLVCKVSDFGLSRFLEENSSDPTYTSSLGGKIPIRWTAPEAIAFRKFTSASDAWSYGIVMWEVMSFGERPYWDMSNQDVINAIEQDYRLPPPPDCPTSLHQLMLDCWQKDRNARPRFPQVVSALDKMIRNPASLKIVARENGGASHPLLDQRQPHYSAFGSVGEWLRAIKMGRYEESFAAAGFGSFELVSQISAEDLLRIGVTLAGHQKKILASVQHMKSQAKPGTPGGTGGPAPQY

CaMKII(r) = target: CaMKII(r)
PAK4(h) = PAK4(h) (Homo sapiens, UniProt O96013)
PAK4(h), sequence (O96013 whole entry): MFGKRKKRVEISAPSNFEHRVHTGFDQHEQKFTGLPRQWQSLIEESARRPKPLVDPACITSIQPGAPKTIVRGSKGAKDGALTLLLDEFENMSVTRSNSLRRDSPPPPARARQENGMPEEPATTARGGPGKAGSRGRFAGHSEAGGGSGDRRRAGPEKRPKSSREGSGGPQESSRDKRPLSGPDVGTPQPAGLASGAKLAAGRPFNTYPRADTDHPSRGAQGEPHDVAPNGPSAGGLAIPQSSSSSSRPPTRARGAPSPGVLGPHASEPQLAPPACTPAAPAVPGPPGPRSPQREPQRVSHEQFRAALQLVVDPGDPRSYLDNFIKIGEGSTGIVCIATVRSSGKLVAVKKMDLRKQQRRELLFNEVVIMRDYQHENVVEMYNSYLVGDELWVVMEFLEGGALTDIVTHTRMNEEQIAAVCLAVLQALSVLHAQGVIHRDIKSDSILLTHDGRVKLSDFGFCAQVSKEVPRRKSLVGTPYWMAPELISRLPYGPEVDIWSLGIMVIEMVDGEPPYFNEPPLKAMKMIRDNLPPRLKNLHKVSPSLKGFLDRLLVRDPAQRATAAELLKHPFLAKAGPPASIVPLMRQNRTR

EGFR(L861Q)(h) = EGFR(L861Q)(h) (Homo sapiens, UniProt P00533, L861Q)
EGFR(L861Q)(h), sequence (P00533 25-1210 L861Q): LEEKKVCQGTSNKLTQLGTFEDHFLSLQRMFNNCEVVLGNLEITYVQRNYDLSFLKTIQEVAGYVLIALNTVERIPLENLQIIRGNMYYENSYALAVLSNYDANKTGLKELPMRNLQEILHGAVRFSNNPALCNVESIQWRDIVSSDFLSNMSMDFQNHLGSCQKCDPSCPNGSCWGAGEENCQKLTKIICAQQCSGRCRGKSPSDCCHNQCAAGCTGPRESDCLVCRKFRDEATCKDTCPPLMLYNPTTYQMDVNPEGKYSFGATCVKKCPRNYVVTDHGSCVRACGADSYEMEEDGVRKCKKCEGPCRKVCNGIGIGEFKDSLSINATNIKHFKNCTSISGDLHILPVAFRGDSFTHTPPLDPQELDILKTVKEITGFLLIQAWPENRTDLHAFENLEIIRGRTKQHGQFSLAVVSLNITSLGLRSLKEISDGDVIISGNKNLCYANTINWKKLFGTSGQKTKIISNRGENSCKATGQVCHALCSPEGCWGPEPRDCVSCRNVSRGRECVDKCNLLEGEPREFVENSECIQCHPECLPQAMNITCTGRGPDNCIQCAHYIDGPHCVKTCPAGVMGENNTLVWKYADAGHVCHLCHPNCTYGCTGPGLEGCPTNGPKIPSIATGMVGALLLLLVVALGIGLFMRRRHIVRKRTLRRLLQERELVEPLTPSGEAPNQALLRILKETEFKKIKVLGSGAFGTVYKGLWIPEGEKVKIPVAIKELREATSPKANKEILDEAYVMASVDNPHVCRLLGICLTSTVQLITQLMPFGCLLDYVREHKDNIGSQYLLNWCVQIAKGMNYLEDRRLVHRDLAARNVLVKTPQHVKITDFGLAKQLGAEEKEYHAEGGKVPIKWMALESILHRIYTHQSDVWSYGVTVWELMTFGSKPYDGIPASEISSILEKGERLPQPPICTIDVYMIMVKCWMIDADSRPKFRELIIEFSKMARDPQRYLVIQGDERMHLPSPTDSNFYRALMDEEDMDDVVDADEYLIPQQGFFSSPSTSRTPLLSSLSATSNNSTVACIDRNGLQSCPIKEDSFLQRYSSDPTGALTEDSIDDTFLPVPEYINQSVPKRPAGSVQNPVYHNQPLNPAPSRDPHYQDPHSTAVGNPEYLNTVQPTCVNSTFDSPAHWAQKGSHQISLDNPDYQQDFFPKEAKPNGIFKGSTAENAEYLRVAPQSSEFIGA

PAR-1Bα(h) = PAR-1Bα(h) (Homo sapiens, UniProt Q7KZI7)
Met(h) = Met(h) (Homo sapiens, UniProt P08581)
Met(h), sequence (P08581 25-1390): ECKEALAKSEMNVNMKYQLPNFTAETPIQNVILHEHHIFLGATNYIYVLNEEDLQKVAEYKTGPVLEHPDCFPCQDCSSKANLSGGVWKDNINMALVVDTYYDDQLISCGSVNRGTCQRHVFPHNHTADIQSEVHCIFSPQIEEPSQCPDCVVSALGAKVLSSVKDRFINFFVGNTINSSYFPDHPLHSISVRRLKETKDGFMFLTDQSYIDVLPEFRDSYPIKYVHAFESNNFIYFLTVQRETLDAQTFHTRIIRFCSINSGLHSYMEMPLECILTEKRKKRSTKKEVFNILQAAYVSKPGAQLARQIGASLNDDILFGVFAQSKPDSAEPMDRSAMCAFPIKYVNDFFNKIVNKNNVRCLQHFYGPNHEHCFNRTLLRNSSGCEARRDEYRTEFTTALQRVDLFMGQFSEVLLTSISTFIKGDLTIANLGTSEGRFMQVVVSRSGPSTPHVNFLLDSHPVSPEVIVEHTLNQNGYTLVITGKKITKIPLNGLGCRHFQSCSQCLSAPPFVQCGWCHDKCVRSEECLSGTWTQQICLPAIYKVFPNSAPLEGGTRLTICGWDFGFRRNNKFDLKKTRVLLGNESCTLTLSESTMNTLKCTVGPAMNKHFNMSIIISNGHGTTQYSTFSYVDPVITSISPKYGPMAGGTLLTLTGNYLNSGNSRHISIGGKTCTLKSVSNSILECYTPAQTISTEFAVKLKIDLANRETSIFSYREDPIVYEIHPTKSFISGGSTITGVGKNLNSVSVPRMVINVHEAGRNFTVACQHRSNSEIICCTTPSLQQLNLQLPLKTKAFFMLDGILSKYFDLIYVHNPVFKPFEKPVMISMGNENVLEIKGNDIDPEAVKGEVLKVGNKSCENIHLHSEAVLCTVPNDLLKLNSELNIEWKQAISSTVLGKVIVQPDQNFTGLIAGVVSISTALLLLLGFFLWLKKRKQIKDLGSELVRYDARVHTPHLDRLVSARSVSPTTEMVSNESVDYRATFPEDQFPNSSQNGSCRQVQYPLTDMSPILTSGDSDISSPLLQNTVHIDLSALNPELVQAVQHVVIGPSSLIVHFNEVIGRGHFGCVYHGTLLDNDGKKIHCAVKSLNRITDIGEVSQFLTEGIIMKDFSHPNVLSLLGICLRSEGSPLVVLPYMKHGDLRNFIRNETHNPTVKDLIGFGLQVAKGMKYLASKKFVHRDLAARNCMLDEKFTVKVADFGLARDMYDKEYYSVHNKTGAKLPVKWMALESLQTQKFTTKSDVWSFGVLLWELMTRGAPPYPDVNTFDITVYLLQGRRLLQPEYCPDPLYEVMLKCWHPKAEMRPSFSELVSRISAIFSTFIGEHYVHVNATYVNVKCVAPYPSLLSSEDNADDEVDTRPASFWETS

Pim-2(h) = Pim-2(h) (Homo sapiens, UniProt Q9P1W9)
Pim-2(h), sequence (Q9P1W9 whole entry): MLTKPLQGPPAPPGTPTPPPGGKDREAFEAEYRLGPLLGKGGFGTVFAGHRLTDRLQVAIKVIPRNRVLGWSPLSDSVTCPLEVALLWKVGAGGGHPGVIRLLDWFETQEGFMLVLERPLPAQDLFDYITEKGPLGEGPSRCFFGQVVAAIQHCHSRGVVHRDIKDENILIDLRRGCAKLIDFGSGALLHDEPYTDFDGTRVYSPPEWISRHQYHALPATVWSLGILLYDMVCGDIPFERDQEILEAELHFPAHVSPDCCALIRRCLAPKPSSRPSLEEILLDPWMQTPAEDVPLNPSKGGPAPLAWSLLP

NEK7(h) = NEK7(h) (Homo sapiens, UniProt Q8TDX7)
NEK7(h), sequence (Q8TDX7 whole entry): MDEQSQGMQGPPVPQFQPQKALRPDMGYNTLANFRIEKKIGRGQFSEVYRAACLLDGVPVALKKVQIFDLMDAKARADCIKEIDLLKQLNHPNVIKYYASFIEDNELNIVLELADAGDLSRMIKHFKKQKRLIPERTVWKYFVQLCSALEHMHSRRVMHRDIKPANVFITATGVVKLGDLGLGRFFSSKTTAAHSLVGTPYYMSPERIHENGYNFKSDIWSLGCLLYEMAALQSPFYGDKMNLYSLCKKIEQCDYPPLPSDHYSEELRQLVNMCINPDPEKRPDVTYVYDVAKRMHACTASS

MELK(h) = MELK(h) (Homo sapiens, UniProt Q14680)
MELK(h), sequence (Q14680 whole entry): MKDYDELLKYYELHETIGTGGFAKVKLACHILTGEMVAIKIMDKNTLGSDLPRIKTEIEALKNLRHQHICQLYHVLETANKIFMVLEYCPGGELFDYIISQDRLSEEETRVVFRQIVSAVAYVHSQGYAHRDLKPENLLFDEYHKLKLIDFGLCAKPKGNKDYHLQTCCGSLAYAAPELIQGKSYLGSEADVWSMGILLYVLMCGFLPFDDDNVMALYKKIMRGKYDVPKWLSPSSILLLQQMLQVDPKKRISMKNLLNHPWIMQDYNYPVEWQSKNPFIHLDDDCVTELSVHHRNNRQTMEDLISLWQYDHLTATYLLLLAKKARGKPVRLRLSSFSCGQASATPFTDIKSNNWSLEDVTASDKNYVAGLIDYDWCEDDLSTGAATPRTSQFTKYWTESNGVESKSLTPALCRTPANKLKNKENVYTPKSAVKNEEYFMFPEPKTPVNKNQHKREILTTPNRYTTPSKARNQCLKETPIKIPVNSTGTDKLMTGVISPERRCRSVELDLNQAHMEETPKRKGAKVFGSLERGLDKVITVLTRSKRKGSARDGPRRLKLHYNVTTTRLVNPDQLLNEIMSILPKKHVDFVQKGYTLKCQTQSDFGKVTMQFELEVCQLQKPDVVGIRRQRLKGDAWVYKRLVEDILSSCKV

DRAK1(h) = target: T2, DRAK1(h) (Homo sapiens, UniProt Q9UEE5)
T2 sequence (Q9UEE5 1-414): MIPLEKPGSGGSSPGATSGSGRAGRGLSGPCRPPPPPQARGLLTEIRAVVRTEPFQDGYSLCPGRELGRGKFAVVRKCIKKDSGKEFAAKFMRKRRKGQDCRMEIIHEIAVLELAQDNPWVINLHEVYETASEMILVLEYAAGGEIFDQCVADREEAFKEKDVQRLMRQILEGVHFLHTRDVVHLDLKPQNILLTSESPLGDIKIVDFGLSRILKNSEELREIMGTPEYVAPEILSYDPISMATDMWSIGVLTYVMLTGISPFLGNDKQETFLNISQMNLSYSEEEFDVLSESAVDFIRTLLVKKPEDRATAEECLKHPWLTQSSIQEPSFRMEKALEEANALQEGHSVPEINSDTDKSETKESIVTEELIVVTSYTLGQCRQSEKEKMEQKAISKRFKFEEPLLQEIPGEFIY

PKBγ(h) = PKBγ(h) (Homo sapiens, UniProt Q9Y243)
PKBγ(h), sequence (Q9Y243 whole entry): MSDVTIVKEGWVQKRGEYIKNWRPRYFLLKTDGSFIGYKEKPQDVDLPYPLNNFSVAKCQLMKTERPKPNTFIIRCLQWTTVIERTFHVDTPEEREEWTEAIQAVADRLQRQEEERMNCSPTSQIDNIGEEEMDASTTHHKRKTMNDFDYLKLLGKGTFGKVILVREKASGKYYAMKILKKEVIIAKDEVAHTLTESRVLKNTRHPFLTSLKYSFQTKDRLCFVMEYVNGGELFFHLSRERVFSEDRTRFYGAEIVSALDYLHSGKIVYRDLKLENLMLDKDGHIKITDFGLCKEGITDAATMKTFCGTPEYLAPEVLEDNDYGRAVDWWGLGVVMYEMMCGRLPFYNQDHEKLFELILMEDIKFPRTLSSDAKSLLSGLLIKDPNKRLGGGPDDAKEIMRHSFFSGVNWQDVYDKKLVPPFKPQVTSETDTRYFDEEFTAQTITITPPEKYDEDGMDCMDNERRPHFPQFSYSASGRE

JNK3(h) = JNK3(h) (Homo sapiens, UniProt P53779)

CC(C)CCC(=O)[C@]1(O)C(O)=C(C(=O)C(C)C)C(=O)[C@H]1CCC(C)C [TH2, tetrahydroiso-cohumulone]
kinase inhibition (EphB4(h); 1 μg/ml): 106% of control | kinase inhibition (EphB4(h); 5 μg/ml): 112% of control | kinase inhibition (EphB4(h); 25 μg/ml): 116% of control | kinase inhibition (EphB4(h); 50 μg/ml): 109% of control | kinase inhibition (EphB4(h); 100 μg/ml): 98% of control | kinase inhibition (CaMKII(r); 1 μg/ml): 105% of control | kinase inhibition (CaMKII(r); 5 μg/ml): 106% of control | kinase inhibition (CaMKII(r); 25 μg/ml): 105% of control | kinase inhibition (CaMKII(r); 50 μg/ml): 91% of control | kinase inhibition (CaMKII(r); 100 μg/ml): 63% of control | kinase inhibition (PAK4(h); 1 μg/ml): 105% of control | kinase inhibition (PAK4(h); 5 μg/ml): 84% of control | kinase inhibition (PAK4(h); 25 μg/ml): 98% of control | kinase inhibition (PAK4(h); 50 μg/ml): 110% of control | kinase inhibition (PAK4(h); 100 μg/ml): 99% of control | kinase inhibition (EGFR(L861Q)(h); 1 μg/ml): 98% of control | kinase inhibition (EGFR(L861Q)(h); 5 μg/ml): 91% of control | kinase inhibition (EGFR(L861Q)(h); 25 μg/ml): 94% of control | kinase inhibition (EGFR(L861Q)(h); 50 μg/ml): 99% of control | kinase inhibition (EGFR(L861Q)(h); 100 μg/ml): 93% of control | kinase inhibition (PAR-1Bα(h); 1 μg/ml): 109% of control | kinase inhibition (PAR-1Bα(h); 5 μg/ml): 113% of control | kinase inhibition (PAR-1Bα(h); 25 μg/ml): 114% of control | kinase inhibition (PAR-1Bα(h); 50 μg/ml): 116% of control | kinase inhibition (PAR-1Bα(h); 100 μg/ml): 88% of control | kinase inhibition (Met(h); 1 μg/ml): 114% of control | kinase inhibition (Met(h); 5 μg/ml): 113% of control | kinase inhibition (Met(h); 25 μg/ml): 97% of control | kinase inhibition (Met(h); 50 μg/ml): 83% of control | kinase inhibition (Met(h); 100 μg/ml): 61% of control | kinase inhibition (Pim-2(h); 1 μg/ml): 103% of control | kinase inhibition (Pim-2(h); 5 μg/ml): 111% of control | kinase inhibition (Pim-2(h); 25 μg/ml): 77% of control | kinase inhibition (Pim-2(h); 50 μg/ml): 73% of control | kinase inhibition (Pim-2(h); 100 μg/ml): 67% of control | kinase inhibition (NEK7(h); 1 μg/ml): 103% of control | kinase inhibition (NEK7(h); 5 μg/ml): 107% of control | kinase inhibition (NEK7(h); 25 μg/ml): 98% of control | kinase inhibition (NEK7(h); 50 μg/ml): 95% of control | kinase inhibition (NEK7(h); 100 μg/ml): 84% of control | kinase inhibition (MELK(h); 1 μg/ml): 116% of control | kinase inhibition (MELK(h); 5 μg/ml): 104% of control | kinase inhibition (MELK(h); 25 μg/ml): 102% of control | kinase inhibition (MELK(h); 50 μg/ml): 98% of control | kinase inhibition (MELK(h); 100 μg/ml): 83% of control | kinase inhibition (DRAK1(h); 1 μg/ml): 103% of control | kinase inhibition (DRAK1(h); 5 μg/ml): 106% of control | kinase inhibition (DRAK1(h); 25 μg/ml): 107% of control | kinase inhibition (DRAK1(h); 50 μg/ml): 93% of control | kinase inhibition (DRAK1(h); 100 μg/ml): 79% of control | kinase inhibition (PKBγ(h); 1 μg/ml): 112% of control | kinase inhibition (PKBγ(h); 5 μg/ml): 110% of control | kinase inhibition (PKBγ(h); 25 μg/ml): 107% of control | kinase inhibition (PKBγ(h); 50 μg/ml): 97% of control | kinase inhibition (PKBγ(h); 100 μg/ml): 83% of control | kinase inhibition (JNK3(h); 1 μg/ml): 110% of control | kinase inhibition (JNK3(h); 5 μg/ml): 108% of control | kinase inhibition (JNK3(h); 25 μg/ml): 80% of control | kinase inhibition (JNK3(h); 50 μg/ml): 92% of control | kinase inhibition (JNK3(h); 100 μg/ml): 88% of control
